According to patent US10202371B2, “Oxazolidin-2-one-pyrimidine derivatives and the use thereof as phosphatidylinositol-3-kinase inhibitors” (Novartis AG, priority 2012, dated 2019):

Legend:
human PI3Kβ = human PI3Kβ (Homo sapiens (Human), UniProt P42338); test: Biochemical assay PI3Kbeta (KinaseGlo luminescence); conditions: 1 μM ATP, read-out: PI3Kb/IC50
Text: Cancer Ther. accepted). […] (L-alpha-phosphatidylinositol (PI), Liver, Bovine) were obtained from Avanti Polar Lipid (Cat. […] (Avanti, Cat. No. 840046X) or L-α-phosphatidylinositol (PI) was obtained from Avanti Polar Lipid (Cat. […] Luminescence is a well established readout to determine ATP concentrations and can thus be used to follow the activity of many kinases regardless of their substrate. The Kinase Glo Luminescent Kinase Assay (Promega, Madison/WI, USA) is a homogeneous HTS method of measuring kinase activity by quantifying the amount of ATP remaining in solution following a kinase reaction. 50 nL of compound dilutions were dispensed onto black 384-well low volume Non Binding Styrene (NBS) plates (Costar Cat. No. […] L-α-phosphatidylinositol (PI), provided as 10 mg/ml solution in methanol, was transferred into a glass tube and dried under nitrogen beam. […] NVP-BGT226 was used as a reference compound and included in all assay plates in the form of 16 dilution points in duplicate. […] All fits were performed with the program XLfit4 (ID Business Solutions, Guildford, UK).

[1] = target: human PI3Kdelta p110 catalytic subunit (Rat-1 cells) (Homo sapiens (Human), UniProt O00329); test: Cellular assay PI3Kdelta, p-Akt(S473) SureFire in Rat-1_PI3Kdelta cells; format: cell-based; conditions: p-AKT(Ser473), 1 h treatment; read-out: Rat1-PI3Kd/IC50
Sequence of human PI3Kdelta p110 catalytic subunit (Rat-1 cells) (O00329 whole entry): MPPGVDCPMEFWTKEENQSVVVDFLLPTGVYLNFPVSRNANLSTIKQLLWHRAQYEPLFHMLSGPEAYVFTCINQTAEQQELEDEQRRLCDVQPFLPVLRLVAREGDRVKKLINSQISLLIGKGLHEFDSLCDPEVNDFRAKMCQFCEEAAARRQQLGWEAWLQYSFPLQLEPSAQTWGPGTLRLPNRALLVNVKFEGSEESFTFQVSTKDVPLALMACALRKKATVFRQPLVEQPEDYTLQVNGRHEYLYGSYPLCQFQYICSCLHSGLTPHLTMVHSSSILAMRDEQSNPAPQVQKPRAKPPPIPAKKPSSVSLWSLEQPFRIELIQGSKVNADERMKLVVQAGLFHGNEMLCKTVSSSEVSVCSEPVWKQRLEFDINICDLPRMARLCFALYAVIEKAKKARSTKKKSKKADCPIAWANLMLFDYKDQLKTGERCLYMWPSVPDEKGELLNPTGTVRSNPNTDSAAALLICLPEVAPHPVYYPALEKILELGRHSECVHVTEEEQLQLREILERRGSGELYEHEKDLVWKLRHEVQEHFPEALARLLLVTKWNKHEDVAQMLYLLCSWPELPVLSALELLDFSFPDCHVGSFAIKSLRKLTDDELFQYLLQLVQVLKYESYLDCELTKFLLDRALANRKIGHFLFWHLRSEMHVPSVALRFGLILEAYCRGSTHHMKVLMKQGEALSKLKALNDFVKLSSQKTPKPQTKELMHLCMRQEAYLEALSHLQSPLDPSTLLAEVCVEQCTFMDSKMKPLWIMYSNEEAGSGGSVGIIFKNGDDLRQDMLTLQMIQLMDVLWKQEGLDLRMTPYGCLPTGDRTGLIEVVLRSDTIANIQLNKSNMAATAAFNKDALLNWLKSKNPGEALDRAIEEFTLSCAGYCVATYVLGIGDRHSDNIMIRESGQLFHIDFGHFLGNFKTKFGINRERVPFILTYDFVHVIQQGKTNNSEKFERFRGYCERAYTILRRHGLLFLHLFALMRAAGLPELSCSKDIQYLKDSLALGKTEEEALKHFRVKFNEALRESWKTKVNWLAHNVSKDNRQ
Sequence of human PI3Kdelta p110 catalytic subunit (Rat-1 cells) (Q63787 whole entry partner): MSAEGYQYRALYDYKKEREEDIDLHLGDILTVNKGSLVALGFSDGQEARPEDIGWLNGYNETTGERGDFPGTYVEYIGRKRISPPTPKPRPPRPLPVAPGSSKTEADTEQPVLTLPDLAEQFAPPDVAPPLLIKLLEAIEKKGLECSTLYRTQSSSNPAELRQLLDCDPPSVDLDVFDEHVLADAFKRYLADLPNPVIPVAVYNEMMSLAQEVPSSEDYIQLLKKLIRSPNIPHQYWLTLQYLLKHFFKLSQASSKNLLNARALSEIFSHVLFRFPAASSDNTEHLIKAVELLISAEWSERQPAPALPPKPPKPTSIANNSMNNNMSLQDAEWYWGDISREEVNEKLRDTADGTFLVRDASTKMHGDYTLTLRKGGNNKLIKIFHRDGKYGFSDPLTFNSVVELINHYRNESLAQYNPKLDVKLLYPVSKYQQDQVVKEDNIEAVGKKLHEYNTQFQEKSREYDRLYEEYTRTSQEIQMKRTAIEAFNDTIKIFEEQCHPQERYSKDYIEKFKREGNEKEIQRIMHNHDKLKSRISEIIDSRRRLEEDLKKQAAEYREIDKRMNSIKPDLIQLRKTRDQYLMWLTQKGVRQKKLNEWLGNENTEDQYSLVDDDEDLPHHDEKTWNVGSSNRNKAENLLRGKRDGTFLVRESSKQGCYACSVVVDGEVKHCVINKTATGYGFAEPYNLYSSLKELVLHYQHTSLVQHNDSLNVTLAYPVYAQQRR
Text: AlphaScreen (Amplified Luminescent Proximity Homogeneous Assay, ALPHA, Perkin Elmer) is a non-radioactive bead-based proximity assay technology to study biomolecular interactions in a homogenous microtiter plate format. The brand name SureFire denotes AlphaScreen assays that are adapted to quantify the phosphorylation of endogenous cellular proteins in cell lysates, by using matched antibody pairs, which consist of an anti-phospho-kinase and an anti-kinase antibody. The assay allows characterization of kinase signaling in cells as well as measurement of kinase inhibitor effects. The AlphaScreen technology provides several advantages over standard assay techniques such as ELISA, as it avoids time-consuming washing procedures and reduces plate handling. Furthermore, it is miniaturizable at least to a 384-well format and provides sensitivity down to the femtomolar range, dependent on the affinity of the antibodies included in the individual AlphaScreen SureFire assay kit. High sensitivity is reached by an intrinsic amplification mechanism, which involves production of singlet oxygen molecules. SureFire assay kits are commercially available for specific targets and include pairs of validated antibodies (PerkinElmer). This report describes common procedures applied for AlphaScreen SureFire assays and respective semi-automated steps for routine kinase inhibitor profiling in cell-based assays.
The Rat-1 cell lines stably overexpressing activated PI3K class I isoforms Rat-1 pBABEpuro Myr-HA-hp110 delta (Rat-1_PI3Kdelta) and Rat-1 pBABEpuro Myr-HA-hp110alpha (Rat-1_PI3Kalpha) and Rat-1 pBABEpuro Myr-HA-hp110 beta (Rat-1_PI3beta) were prepared as described (Maira S M, Stauffer F, Brueggen J, Furet P, Schnell C, Fritsch C, Brachmann S, Chène P, de Pover A, Schoemaker K, Fabbro D, Gabriel D, Simonen M, Murphy L, Finan P, Sellers W, Garcia-Echeverria C (2008), Mol Cancer Ther. 7:1851-63 and Maira S M, Pecchi S, Brueggen J, Huh K, Schnell C, Fritsch C, Nagel T, Wiesmann M, Brachmann S, Dorsch M, Chène P, Schoemaker K, De Pover A, Menezes D, Fabbro D, Sellers W, Garcia-Echeverria C, Voliva CF (2011), Mol. Cancer Ther., accepted). All cell lines were cultivated in complete growth medium (DMEM high glucose, 10% (v/v) fetal bovine serum, 1% (v/v) MEM NEAA, 10 mM HEPES, 2 mM L-glutamine, puromycin (10 μg/mL for Rat-1_PI3Kdelta and Rat-1_PI3Kalpha, 4 ug/mL for Rat-1_PI3beta), 1% (v/v) Pen/Strep) to 90% confluency at 37° C./5% CO2/90% humidity in a humidified CO2 incubator and were split twice a week.
The following materials were used for p-AKT(5473) detection in Rat-1 cell lysates: Dulbecco's modified Eagle's medium (DMEM) high glucose (Gibco Invitrogen, Basel, Switzerland, Cat. No. 41965), Heat Inactivated Fetal Bovine Serum, Qualified (HI FBS; Gibco Invitrogen, Basel, Switzerland, Lot. No. 16140), MEM non essential amino acids (NEAA; Gibco Invitrogen, Basel, Switzerland, Cat. No. 11140), HEPES (Gibco Invitrogen, Basel, Switzerland, Cat. No. 15630), Penicillin/Streptomycin (Pen/Strep, 100x; Gibco Invitrogen, Basel, Switzerland, Cat. No. 15140-122), L-Glutamine (Gibco Invitrogen, Basel, Switzerland, Cat. No. 25030), Puromycin (Sigma Aldrich, Buchs, Switzerland, Cat. No. P9620), DMSO (MERCK, Dietikon, Switzerland, Cat. No. 8.02912.2500), H2O, MilliQ-H2O unless otherwise stated (MILLIPORE QGARDOOR1, Millipore, Zug, Switzerland), Bovine serum albumine (BSA; Sigma Aldrich, Buchs, Switzerland Cat. No. A8412), SureFire p-Akt ½ (Ser473) Assay Kit (PerkinElmer, Schwerzenbach, Switzerland, Cat. No. TGRAS50K).
The p-Akt(5473) SureFire assay measures the phosphorylation of endogenous cellular Akt ½ at Ser473 in cell lysates. Using Rat-1 cells stably expressing myr-HA-tagged versions of the human PI3Kdelta, PI3Kalpha, or PI3Kbeta p110 catalytic subunit isoforms, the assay was developed as a two-plate protocol in a 384-well format.

Sequence of human PI3Kβ (P42338 2-1070): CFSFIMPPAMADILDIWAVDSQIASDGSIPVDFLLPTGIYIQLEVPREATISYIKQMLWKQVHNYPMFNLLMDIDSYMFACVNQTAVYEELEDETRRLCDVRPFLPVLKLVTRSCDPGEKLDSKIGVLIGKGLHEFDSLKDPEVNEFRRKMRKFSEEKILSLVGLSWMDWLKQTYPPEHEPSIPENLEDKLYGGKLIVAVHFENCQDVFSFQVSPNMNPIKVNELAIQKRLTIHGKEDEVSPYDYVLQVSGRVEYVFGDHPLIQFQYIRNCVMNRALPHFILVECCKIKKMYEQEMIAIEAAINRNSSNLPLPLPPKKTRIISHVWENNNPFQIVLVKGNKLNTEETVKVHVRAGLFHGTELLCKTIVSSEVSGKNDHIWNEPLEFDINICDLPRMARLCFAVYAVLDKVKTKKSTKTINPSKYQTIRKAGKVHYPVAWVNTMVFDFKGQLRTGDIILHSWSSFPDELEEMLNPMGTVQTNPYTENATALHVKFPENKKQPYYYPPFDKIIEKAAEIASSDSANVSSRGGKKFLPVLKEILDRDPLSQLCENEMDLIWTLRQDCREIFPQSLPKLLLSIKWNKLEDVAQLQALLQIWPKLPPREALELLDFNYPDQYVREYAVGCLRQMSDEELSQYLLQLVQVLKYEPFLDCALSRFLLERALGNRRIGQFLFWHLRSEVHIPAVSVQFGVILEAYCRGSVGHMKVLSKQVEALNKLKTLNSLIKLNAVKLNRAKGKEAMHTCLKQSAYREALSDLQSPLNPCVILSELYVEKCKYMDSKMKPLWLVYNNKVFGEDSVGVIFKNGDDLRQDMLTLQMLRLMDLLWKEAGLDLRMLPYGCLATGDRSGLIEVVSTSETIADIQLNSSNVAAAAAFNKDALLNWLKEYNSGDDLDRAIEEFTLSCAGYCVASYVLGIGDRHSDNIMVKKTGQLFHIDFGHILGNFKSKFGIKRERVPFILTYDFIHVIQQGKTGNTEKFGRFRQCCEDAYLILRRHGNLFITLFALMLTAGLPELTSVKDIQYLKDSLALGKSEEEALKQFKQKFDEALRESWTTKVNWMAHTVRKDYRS

Compound	IC50 (human PI3Kβ) [nM]	IC50 [1] [nM]
CC[C@H]1[C@H](c2ccc(OC)cc2)OC(=O)N1c1cc(-c2cnc(N)nc2C(F)(F)F)nc(N2CCOCC2)n1 (relative stereo) [Example 2, (4S*,5S*)-3-(2′-amino-2-morpholino-4′-(trifluoromethyl)-[4,5′-bipyrimidin]-6-yl)-4-ethyl-5-(4-methoxyphenyl)oxazolidin-2-one]	96	–
C[C@H]1[C@H](c2nccs2)OC(=O)N1c1cc(-c2cnc(N)nc2C(F)(F)F)nc(N2CCOCC2)n1 [Example 1, (4S,5R)-3-(2′-Amino-2-morpholin-4-yl-4′-trifluoromethyl-[4,5′]bipyrimidinyl-6-yl)-4-methyl-5-thiazol-2-yl-oxazolidin-2-one]	9	–
COc1ccc([C@@H]2OC(=O)N(c3cc(-c4cnc(N)nc4C(F)(F)F)nc(N4CCOCC4)n3)[C@H]2CO)cc1 [Example 3, (4S,5S)-3-(2′-Amino-2-morpholino-4′-(trifluoromethyl)-[4,5′-bipyrimidin]-6-yl)-4-(hydroxymethyl)-5-(4-methoxyphenyl)oxazolidin-2-one]	7	6
C[C@H]1[C@H](c2ccccc2)OC(=O)N1c1cc(-c2cnc(N)nc2C(F)(F)F)nc(N2CCOCC2)n1 [Example 5]	–	119
CC[C@H]1[C@H](c2nccs2)OC(=O)N1c1cc(-c2cnc(N)nc2C(F)(F)F)nc(N2CCOCC2)n1 [Example 7]	–	123
CCC1C(c2cccnc2)OC(=O)N1c1cc(-c2cnc(N)nc2C(F)(F)F)nc(N2CCOCC2)n1 (stereo not shown) [Example 8]	67	–
CC1C(c2cccnc2)OC(=O)N1c1cc(-c2cnc(N)nc2C(F)(F)F)nc(N2CCOCC2)n1 (stereo not shown) [Example 9]	–	11
Nc1ncc(-c2cc(N3C(=O)O[C@@H](c4ccccc4)[C@@H]3CO)nc(N3CCOCC3)n2)c(C(F)(F)F)n1 [Example 10]	5	22
C[C@H]1[C@@H](c2nccs2)OC(=O)N1c1cc(-c2cnc(N)nc2C(F)(F)F)nc(N2CCOCC2)n1 [Example 11]	10	–
COCCOc1ccc([C@@H]2OC(=O)N(c3cc(-c4cnc(N)nc4C(F)(F)F)nc(N4CCOCC4)n3)[C@H]2CO)cc1 [Example 12]	–	4
Nc1ncc(-c2cc(N3C(=O)O[C@@H](c4ccc(OCCO)cc4)[C@@H]3CO)nc(N3CCOCC3)n2)c(C(F)(F)F)n1 [Example 13]	11	–
